{
  "source": "patent US20250000096A1",
  "about": "“ANTIMICROBIAL COMPOSITION WITH A LOW ODOR” (EVONIK CORPORATION, priority 2021, published 2025)",
  "origin": "cited, not measured here",
  "settings": "background statement",
  "data": [
    {"molecule": "CC(=O)O", "note": "[acetic acid]", "values": [
      {"measurement": "limit for olfactory detection", "result": 0.15, "unit": "ppm"}
    ]}
  ]
}
